For data set [1], the system named is Plasmodium falciparum. Briefly: Antiplasmodial activity against Plasmodium falciparum K1 infected in erythrocytes assessed as [3H]hypoxanthine incorporation after 24 hrs by microbeta scintillation counting analysis. It is filed as functional, organism-based.
For data set [2], the system named is Plasmodium falciparum. Briefly: Resistance index, ratio of IC50 for Plasmodium falciparum K1 to IC50 for Plasmodium falciparum 3D7. It is filed as functional.
The subject of data set [3] is Plasmodium falciparum. Briefly: Antiplasmodial activity against Plasmodium falciparum 3D7 infected in erythrocytes assessed as [3H]hypoxanthine incorporation after 24 hrs by microbeta scintillation counting analysis. Type of data set: functional, organism-based.
A short description of data set [4]: Inhibition of beta-haematin complex formation after 60 mins by spectrophotometry relative to chloroquine. Type of data set: physicochemical.

As usually defined, the pIC50 is −log10 of the IC50, conventionally taken in molar units.

Structures are written as SMILES. pIC50: −log10 of the molar value.

As to `O=c1cc(CNCCCCCCNc2ccnc3cc(Cl)ccc23)n(C2CC2)cc1OCc1ccccc1`, the pIC50 is 6.49 in the data set on Plasmodium falciparum [1] and 8.40 in the data set with Plasmodium falciparum [3]. Moreover, in the data set with Plasmodium falciparum [2], the Ratio IC50 was 7.5. Moreover, the IC50 in data set [4] turned out to be 0.071 equiv.
For `CN(CCCNc1ccnc2cc(Cl)ccc12)Cc1cc(=O)c(O)cn1C` the same measures were 6.57, 7.40, 1 and 1.95 equiv.
`Cn1cc(OCc2ccccc2)c(=O)cc1CNCCCCNc1ccnc2cc(Cl)ccc12`: the pIC50 was 6.57 with Plasmodium falciparum [1] and 6.62 in the data set on Plasmodium falciparum [3]. In addition, in the data set on Plasmodium falciparum [2], the “Ratio IC50” value amounted to 2.2. Besides, the IC50 in data set [4] was 0.42 equiv.
Take `O=c1cc(CNCCNc2ccnc3cc(Cl)ccc23)n(C2CC2)cc1OCc1ccccc1`: the negative logarithm of the IC50 (pIC50) in the data set with Plasmodium falciparum [1] is 7.40; in the data set with Plasmodium falciparum [3], 6.68. Moreover, the “Ratio IC50” value in the data set with Plasmodium falciparum [2] worked out at 1. This compound also showed an IC50 in data set [4] of 0.56 equiv.
For `Cn1cc(OCc2ccccc2)c(=O)cc1CNCCCCCCNc1ccnc2cc(Cl)ccc12` the same measures were 6.82, 7.40, 0.4 and 0.51 equiv.
Take `O=c1cc(CNCCCNc2ccnc3cc(Cl)ccc23)n(C2CC2)cc1O`: the pIC50 in the data set on Plasmodium falciparum [1] is 6.07; with Plasmodium falciparum [3] it was 6.80. Besides, the Ratio IC50 in the data set on Plasmodium falciparum [2] stood at 3.6. The IC50 in data set [4] was found to be 2.62 equiv.
In the same order, the values of `Cn1cc(O)c(=O)cc1CNCCCCCCNc1ccnc2cc(Cl)ccc12` are 6.01, 6.82, 1.7 and 0.7 equiv.
In the same order, the values of `Cn1cc(O)c(=O)cc1CNCCNc1ccnc2cc(Cl)ccc12` are 5.84, 6.24, 3 and 0.63 equiv.
As for `C[C@@H]1CC[C@H]2[C@@H](C)C(=O)O[C@@H]3O[C@@]4(C)CC[C@@H]1[C@]32OO4` [ARTEMISININ], the pIC50 in the data set with Plasmodium falciparum [1] is 8.40; in the data set with Plasmodium falciparum [3] it was 8.05. In addition, in the data set on Plasmodium falciparum [2], the “Ratio IC50” value worked out at 0.4.
Regarding `Cn1cc(OCc2ccccc2)c(=O)cc1CNCCCNc1ccnc2cc(Cl)ccc12`, the figures for the negative-log IC50 (pIC50) with Plasmodium falciparum [1] and with Plasmodium falciparum [3] were 5.76 and 6.52, respectively. The “Ratio IC50” value with Plasmodium falciparum [2] is recorded as 3. The same compound showed an IC50 in data set [4] of 1.3 equiv.
For the compound `Cn1cc(O)c(=O)cc1CNCCCCNc1ccnc2cc(Cl)ccc12`, the pIC50 in the data set on Plasmodium falciparum [1] was 6.14; with Plasmodium falciparum [3], 6.17. For the same compound, the Ratio IC50 with Plasmodium falciparum [2] was found to be 0.1.
Turning to `O=c1cc(CNCCNc2ccnc3cc(Cl)ccc23)n(C2CC2)cc1O`, the negative logarithm of the IC50 (pIC50) with Plasmodium falciparum [1] is 6.34; with Plasmodium falciparum [3] it was 6.52. Besides, the Ratio IC50 with Plasmodium falciparum [2] came to 1.6. In addition, the IC50 in data set [4] was 1.41 equiv.
In the same order, the values of `CN(CCCNc1ccnc2cc(Cl)ccc12)Cc1cc(=O)c(OCc2ccccc2)cn1C` are 5.68, 6.41, 6.9 and 1.98 equiv.
On to `O=c1cc(CNCCCCNc2ccnc3cc(Cl)ccc23)n(C2CC2)cc1O`, for which the negative-log IC50 (pIC50) in the data set with Plasmodium falciparum [1] was 7.52; with Plasmodium falciparum [3] it was 8.40. Moreover, in the data set on Plasmodium falciparum [2], the Ratio IC50 was 2.1. Also, in data set [4], the IC50 came to 2.57 equiv.
In data set [4], `CCN(CC)CCCC(C)Nc1ccnc2cc(Cl)ccc12` (configuration not stated) [CHLOROQUINE] registered an IC50 of 1.9 equiv.
`Cn1cc(O)c(=O)cc1CNCCCNc1ccnc2cc(Cl)ccc12`: the figures for the negative logarithm of the IC50 (pIC50) in the data set on Plasmodium falciparum [1] and with Plasmodium falciparum [3] were 6.44 and 6.92, respectively. The Ratio IC50 in the data set with Plasmodium falciparum [2] stood at 2.2. Besides, the IC50 in data set [4] came to 6.12 equiv.
In the same order, the values of `O=c1cc(CNCCCCCCNc2ccnc3cc(Cl)ccc23)n(C2CC2)cc1O` are 7.10, 7.52, 2.7 and 1.39 equiv.
Regarding `O=c1cc(CNCCCNc2ccnc3cc(Cl)ccc23)n(C2CC2)cc1OCc1ccccc1`, the negative logarithm of the IC50 (pIC50) with Plasmodium falciparum [1] is 5.77; in the data set with Plasmodium falciparum [3], 6.72. Also, the “Ratio IC50” value in the data set with Plasmodium falciparum [2] was determined as 7.1. In data set [4], this compound had an IC50 of 0.22 equiv.
Regarding `CN(CCCNc1ccnc2cc(Cl)ccc12)Cc1cc(=O)c(OCc2ccccc2)cn1C1CC1`, the negative-log IC50 (pIC50) was 7.15 in the data set on Plasmodium falciparum [1] and 6.82 with Plasmodium falciparum [3]. Further, the “Ratio IC50” value with Plasmodium falciparum [2] worked out at 0.1.
In the case of `CN(CCCNc1ccnc2cc(Cl)ccc12)Cc1cc(=O)c(O)cn1C1CC1`, the pIC50 in the data set with Plasmodium falciparum [1] is 6.44; in the data set on Plasmodium falciparum [3], 6.77. In addition, the Ratio IC50 with Plasmodium falciparum [2] was determined as 1.5. In data set [4], this compound returned an IC50 of 5.24 equiv.
As for `Cn1cc(OCc2ccccc2)c(=O)cc1CNCCNc1ccnc2cc(Cl)ccc12`, the negative logarithm of the IC50 (pIC50) in the data set with Plasmodium falciparum [1] is 5.59; in the data set with Plasmodium falciparum [3], 6.27. Further, the “Ratio IC50” value in the data set on Plasmodium falciparum [2] is recorded as 4.7. Moreover, in data set [4], the IC50 is 1.27 equiv.
In the case of `O=c1cc(CNCCCCNc2ccnc3cc(Cl)ccc23)n(C2CC2)cc1OCc1ccccc1`, the negative-log IC50 (pIC50) with Plasmodium falciparum [1] is 6.49; in the data set on Plasmodium falciparum [3] it was 6.80. Also, the Ratio IC50 in the data set on Plasmodium falciparum [2] amounted to 5.3. The same compound yielded an IC50 in data set [4] of 0.82 equiv.
